Laboratory results from patent US10745401B2, “Condensed lactam derivative” (Sumitomo Dainippon Pharma Co., Ltd., priority 2018, dated 2020).
pEC50, pIC50, pKi: −log10 of the molar value.

Key:
[1] = target: human D2 receptor (Homo sapiens (Human), UniProt P14416); assay: Test 1: binding activity for human D2 receptor ([3H]Spiperone, CHO cell membrane fraction); conditions: human D2 receptor, [3H]Spiperone
Method: (§1) Test 1: Evaluation of Binding Activity for Human 5-HT1A Receptor, Human 5-HT2A Receptor, and Human D2 Receptor
(§2) Binding affinity of the present compound for human 5-HT1A receptor, human 5-HT2A receptor, and human D2 receptor was measured by the following procedures.
(§3) Each mixture was incubated at room temperature for 60 minutes. Then, the mixture was added quickly on a glassfiber filter plate (Multiscreen FB, Millipore, Inc.) coated with 0.3% aqueous polyethylenimine, and vacuum-filtered. Radioactivity remaining on the filter was measured with a liquid scintillation counter (PerkinElmer, Inc.). Binding inhibition rate was calculated from the following formula.
(§4) Ki of each compound was calculated from the following formula. Binding inhibition constant (Ki)=IC50/(1+S/Kd) wherein S is concentration of ligand; Kd is a binding dissociation constant of ligand to membrane, which is calculated from a saturated binding experiment conducted with the same cell membrane. A small Ki value means strong binding ability to a receptor.

[2] = target: T1, human 5-HT1A receptor (Homo sapiens (Human), UniProt P08908); assay: Test 2: agonist activity for human 5-HT1A receptor ([35S]GTPγS binding); format: biochemical; conditions: for Emax at 10 µM: agonist activity in the presence of 10 μM of compound, relative to 100 μmol/L 5-HT; for pEC50: [35S]GTPγS binding, concentration at which half the activity of Emax was obtained
Method: Test 2: Evaluation of Agonist Activity for Human 5-HT1A Receptor
CHO cell membrane fraction in which human 5-HT1A receptor was expressed as used in Test 1 was purchased. To a buffer containing guanosine diphosphate were added a test compound dissolved in DMSO, each receptor membrane sample diluted with buffer, and [^35S] Guanosine 5′-O-[gamma-thio]triphosphate (GTPγS). The mixture was incubated at room temperature for 60 minutes. Then, the mixture was added quickly on a glassfiber filter plate (Multiscreen FB, Millipore, Inc.), and vacuum-filtered. Radioactivity remaining on the […] was measured with a liquid scintillation counter. Agonist activity was calculated from the following formula.

[3] = Test 4: metabolic stability test in human hepatic microsome; format: in vitro ADME; conditions: 0.1 mg/mL microsome, 0.1 μmol/L compound, 37° C., 30 minutes
Method: Test 4: Metabolic Stability Test in Human Hepatic Microsome
The stability of the present compound in human hepatic microsome metabolism was evaluated as mentioned below. Human hepatic microsome was obtained from Xenontech. Human hepatic microsome, NADPH, and each test compound were mixed in 25 mmol/L phosphate buffer solution (pH 7.4) to reach the following concentrations as shown below, and the mixture was incubated at 37° C. for 30 minutes. • Human hepatic microsome: 0.1 mg/mL • NAPDH: 3.2 mmol/L • Test compound: 0.1 μmol/L
The residual ratio of the test compound in each sample after 30 minutes was measured by LC-MS, and the metabolic stability in human hepatic microsome was calculated from the following formula. Metabolic stability in human hepatic microsome (mL/min/mg protein)=−LN (residual ratio)/30/0.1

[4] = target: hERG channel (Homo sapiens (Human), UniProt Q12809); assay: Test 6-1: inhibitory activity for hERG channel (auto patch clamp, Qpatch); format: cell-based; conditions: whole cell auto patch clamp, hERG-CHO cells; read-out: hERG inhibition IC50
Method: Test 6-1: Evaluation of Inhibitory Activity for hERG Channel
Inhibitory activity of the present compound for hERG channel was measured by whole cell patch clamp method with an auto patch clamp system using CHO cells in which hERG channel involved in human rapidly activating delayed rectifier potassium current (IKr) was forcibly expressed.
hERG-CHO cells purchased from ChanTest Cop. were cultured in a CO2 incubator at 37° C., and dissociated from a flask with trypsin shortly before the measurement of hERG current, to prepare a cell suspension.
Extracellular fluid: 2 mmol/L CaCl2, 1 mmol/L MgCl2, 10 mmol/L HEPES, 4 mmol/L KCl, 145 mmol/L NaCl, 10 mmol/L Glucose
Intracellular fluid: 5.4 mmol/L CaCl2, 1.8 mmol/L MgCl2, 10 mmol/L HEPES, 31 mmol/L KOH, 10 mmol/L EGTA, 120 mmol/L KCl, 4 mmol/L Na2-ATP
Test compound solution: Test compound was dissolved in DMSO to reach the concentration of 2 mmol/L or 20 mmol/L, in order to prepare a test compound solution. […] (Measurement of Current Value and Data Analysis)
The cell suspension, the extracellular fluid, the intracellular fluid, and the measurement plate were set in the auto patch clamp system, and hERG current was measured by whole cell patch clamp method. […] Each pulse interval was 15 seconds. The data analysis was carried out with Qpatch Assay Software (Biolin Scientific). The test was carried out by applying incrementally 4 concentrations of each test compound, and the average of the maximum peak tail currents which were obtained from the last 3 stimulations in each concentration was determined as the evaluated data. Based on the current inhibition rate for a pre-applied current at each concentration of each test compound, IC50 value was calculated by Hill equation with the software.

[5] = target: T1, human 5-HT1A receptor; assay: Test 1: binding activity for human 5-HT1A receptor ([3H]8-OH-DPAT, CHO cell membrane fraction)
Method: as §1, §2, §3
as §4, with “IC50 value was calculated by Hill analysis (Physiology, 1910, 40, 190-200). Ki of” for “Ki of”

Chain of human D2 receptor (P14416 whole entry): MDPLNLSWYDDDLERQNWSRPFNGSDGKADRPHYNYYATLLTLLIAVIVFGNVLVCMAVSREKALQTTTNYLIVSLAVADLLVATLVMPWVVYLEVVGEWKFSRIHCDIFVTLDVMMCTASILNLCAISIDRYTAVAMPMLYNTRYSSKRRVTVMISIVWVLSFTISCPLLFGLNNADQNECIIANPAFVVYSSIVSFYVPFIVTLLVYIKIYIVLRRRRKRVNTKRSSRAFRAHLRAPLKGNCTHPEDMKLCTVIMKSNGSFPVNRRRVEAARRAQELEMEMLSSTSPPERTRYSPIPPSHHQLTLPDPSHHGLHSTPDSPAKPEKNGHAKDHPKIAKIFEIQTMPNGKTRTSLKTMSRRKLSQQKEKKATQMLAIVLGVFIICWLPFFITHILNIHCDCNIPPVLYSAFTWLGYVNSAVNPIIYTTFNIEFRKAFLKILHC
T1 sequence (P08908 whole entry): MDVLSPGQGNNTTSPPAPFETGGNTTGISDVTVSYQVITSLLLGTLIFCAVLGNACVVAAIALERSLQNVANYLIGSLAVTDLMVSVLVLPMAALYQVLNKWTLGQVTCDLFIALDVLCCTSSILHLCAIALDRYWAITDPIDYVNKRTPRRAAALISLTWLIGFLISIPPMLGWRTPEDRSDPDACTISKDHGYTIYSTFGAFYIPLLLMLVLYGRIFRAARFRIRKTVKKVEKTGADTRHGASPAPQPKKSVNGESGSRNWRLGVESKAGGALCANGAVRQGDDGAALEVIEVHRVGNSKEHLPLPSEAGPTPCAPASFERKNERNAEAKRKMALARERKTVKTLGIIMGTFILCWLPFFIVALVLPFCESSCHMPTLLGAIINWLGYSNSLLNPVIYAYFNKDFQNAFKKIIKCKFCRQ
Chain of hERG channel (Q12809 whole entry): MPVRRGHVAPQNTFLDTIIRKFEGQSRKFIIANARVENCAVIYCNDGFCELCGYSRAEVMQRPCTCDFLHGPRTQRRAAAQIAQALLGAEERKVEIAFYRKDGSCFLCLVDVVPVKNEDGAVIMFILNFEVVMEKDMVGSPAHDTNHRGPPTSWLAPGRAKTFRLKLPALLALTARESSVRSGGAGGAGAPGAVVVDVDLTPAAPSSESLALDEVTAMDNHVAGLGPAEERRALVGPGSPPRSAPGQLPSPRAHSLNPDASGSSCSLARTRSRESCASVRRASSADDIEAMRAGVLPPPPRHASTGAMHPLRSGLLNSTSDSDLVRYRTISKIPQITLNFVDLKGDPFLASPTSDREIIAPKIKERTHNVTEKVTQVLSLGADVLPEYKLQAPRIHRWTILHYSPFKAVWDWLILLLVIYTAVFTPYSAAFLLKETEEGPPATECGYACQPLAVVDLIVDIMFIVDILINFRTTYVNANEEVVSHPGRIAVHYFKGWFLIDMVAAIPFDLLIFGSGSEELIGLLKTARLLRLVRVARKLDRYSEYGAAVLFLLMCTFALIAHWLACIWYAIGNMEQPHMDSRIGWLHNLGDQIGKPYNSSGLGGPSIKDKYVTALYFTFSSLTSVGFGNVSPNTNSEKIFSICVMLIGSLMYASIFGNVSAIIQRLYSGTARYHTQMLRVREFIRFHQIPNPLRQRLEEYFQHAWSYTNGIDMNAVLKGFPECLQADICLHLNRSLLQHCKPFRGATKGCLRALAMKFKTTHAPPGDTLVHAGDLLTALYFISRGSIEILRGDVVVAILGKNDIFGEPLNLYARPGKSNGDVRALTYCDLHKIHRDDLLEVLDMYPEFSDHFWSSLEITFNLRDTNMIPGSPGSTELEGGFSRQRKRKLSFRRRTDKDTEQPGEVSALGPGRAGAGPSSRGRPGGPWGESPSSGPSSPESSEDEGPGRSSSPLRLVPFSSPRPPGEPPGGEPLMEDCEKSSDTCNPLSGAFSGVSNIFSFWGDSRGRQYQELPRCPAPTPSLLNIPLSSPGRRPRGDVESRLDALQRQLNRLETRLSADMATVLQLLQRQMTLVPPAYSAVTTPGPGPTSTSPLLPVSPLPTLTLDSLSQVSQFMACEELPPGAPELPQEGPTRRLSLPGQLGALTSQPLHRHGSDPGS

Row | SMILES | pKi [1] | Emax at 10 µM [2] | Metabolic stability in human hepatic microsome [3] | pIC50 [4] | pKi [5] | pEC50 [2]
1 | Cn1cc2c(n1)C(=O)N(CCN1CCC(c3noc4ccccc34)CC1)CCC2 [Example 48] | 6.24 | 37% | <0.01 mL/min/mg protein | 5.92 |  | 
2 | CCc1nc2c(o1)C(=O)N(CCN1CCN(c3nsc4ccccc34)CC1)CC2 [Example 71] | 6.52 | 67% |  |  | 8.58 | 8.13
3 | O=C1c2cccnc2CCN1CCN1CCN(c2noc3ccccc23)CC1 [Example 153, 6-{2-[4-(1,2-Benzoisoxazol-3-yl)piperazin-1-yl]ethyl}-7,8-dihydro-1,6-naphthyridin-5(6H)-one] |  | 16% | <0.05 mL/min/mg protein | 5.15 |  | 
4 | Cc1ccc2c(n1)C(=O)N(CCN1CCC(c3noc4ccccc34)CC1)CC2 [Example 186] |  |  | 0.095 mL/min/mg protein |  |  | 
5 | Cn1ccc2c1CCCN(CCN1CCN(c3noc4ccccc34)CC1)C2=O [Example 109, 5-{2-[4-(1,2-Benzoisoxazol-3-yl)piperazin-1-yl]ethyl}-1-methyl-5,6,7,8-tetrahydropyrrolo[3,2-c]azepin-4 (H)-one] | 6.22 | 60% | <0.01 mL/min/mg protein | 4.95 |  | 
6 | O=C1c2[nH]cnc2CCCN1CCN1CCN(c2nsc3ccccc23)CC1 [Example 100, 5-{2-[4-(1,2-Benzoisothiazol-3-yl)piperazin-1-yl]ethyl}-5,6,7,8-tetrahydroimidazo[4,5-c]azepin-4(3H)-one] | 5.16 | 58% |  |  | 8.20 | 7.06
7 | O=c1c2cnc(C(F)(F)F)cc2ccn1CCN1CCN(c2nsc3ccccc23)CC1 [Example 172] | 6.42 | 72% |  |  | 8.48 | 8.09
8 | Cn1nc2c(c1Br)C(=O)N(CCN1CCN(c3nsc4ccccc34)CC1)CC2 [Example 73] | 6.63 |  |  |  | 9.01 | 
9 | O=c1c2ncccc2ccn1CCN1CCN(c2nsc3ccccc23)CC1 [Example 8] |  | 50% | 0.064 mL/min/mg protein | 5.70 |  | 
10 | CC1(C)CN(CCN2CCC(c3noc4cc(F)ccc34)CC2)C(=O)c2ncccc21 [Example 119] | 6.98 | 35% |  |  | 8.41 | 7.19
11 | Cc1ncc2c(=O)n(CCN3CCC(c4noc5ccccc45)CC3)ccc2n1 [Example 194, 6-{2-[4-(1,2-Benzoisoxazol-3-yl)piperidin-1-yl]ethyl}-2-methylpyrido[4,3-d]pyrimidin-5(6H)-one] |  |  | <0.05 mL/min/mg protein | 5.31 |  | 
12 | Cn1nc(Br)c2c1CCN(CCN1CCC(c3noc4ccccc34)CC1)C2=O [Example 70] | 6.06 | 50% |  |  | 7.85 | 7.10
13 | Cn1nc2c(c1Br)C(=O)N(CCN1CCC(c3noc4ccccc34)CC1)CC2 [Example 74] | 6.68 | 51% |  |  | 8.46 | 8.35
14 | Cn1cc2c(n1)CCN(CCN1CCC(c3noc4ccccc34)CC1)C2=O [Example 17] | 6.16 | 52% | <0.01 mL/min/mg protein | 6.00 |  | 
15 | Cc1ccc2c(n1)C(=O)N(CCN1CCC(c3noc4ccccc34)CC1)CC2 [Example 187] |  |  | <0.05 mL/min/mg protein |  |  | 
16 | O=c1c2cnc(C(F)(F)F)cc2ccn1CCN1CCC(c2noc3ccccc23)CC1 [Example 84] | 6.02 | 59% |  |  |  | 
17 | O=C1c2nc(Cl)ccc2CCN1CCN1CCN(c2noc3ccccc23)CC1 [Example 144] | < 5.00 | 53% | <0.05 mL/min/mg protein |  |  | 
18 | O=C1c2oc(C3CC3)nc2CCN1CCN1CCC(c2noc3ccccc23)CC1 [Example 68] | 6.07 | 38% | 0.056 mL/min/mg protein | > 6.57 |  | 
